Source: patent publication US10729655B2, “Orally disintegrating tablets” (AstraZeneca AB, priority 2016, dated 2020)

How the values were obtained:
[1] = Relative bioavailability study (clinical study A), plasma pharmacokinetics of ticagrelor and AR-C124910XX; type: in vivo, healthy male and female subjects
Procedure: A relative bioavailability study (hereafter referred to as clinical study A) compared the orodispersible tablet of Example 7, administered with water (after oral dispersion) and without water, to a film-coated tablet containing 90 mg of ticagrelor. In clinical study A the orodispersible tablet was also suspended in water and administered through a nasogastric tube and compared to the film-coated tablet.
This study was an open-label, randomised, four-period, four-treatment, crossover study in healthy male and female of non-childbearing potential subjects, performed at a single study centre. The study was comprised of: • A screening period of maximum 21 days; • Four treatment periods during which subjects were resident prior to the evening meal the night before dosing with ticagrelor (Day −1) until at least 48 hours after dosing; discharged on the morning of Day 3; and • A final visit within 5 to 10 days after the last administration of ticagrelor.
Subjects received single doses of ticagrelor in 4 different ways under fasted conditions. Following an overnight fast of at least 10 hours, each subject received a single dose of each treatment on 4 occasions, respectively.
The PK parameters were assessed for ticagrelor (parent) and its active metabolite AR-C124910XX based on plasma concentrations.
Pharmacokinetic parameters were summarised for each treatment using descriptive statistics. Where possible, the following descriptive statistics were presented: n, geometric mean, geometric CV, arithmetic mean, arithmetic standard deviation, median, minimum and maximum. For tmax, only n, median, minimum and maximum were presented.
Bioavailability comparison of treatments A, B and C (test product) and D (reference product) were assessed on the ratio of log-transformed Cmax, AUC0-t, and AUC of both ticagrelor and AR-C124910XX using a 2-sided 90% confidence interval (CI) approach based on an analysis of variance (ANOVA) model including fixed effects for treatment, sequence, period and subject within sequence.
All PK parameters were log-transformed prior to analysis. The estimated treatment differences and the 90% CIs on the log scale were back transformed to obtain the geometric mean ratios for each pair of treatments.

[2] = Focused Beam Reflectance Measurement (FBRM) of granules in dissolution bath; type: physicochemical; details: granules stored at 40° C. and 75% RH for one month
Procedure: Focused Beam Reflectance Measurement (FBRM) analyses were conducted in dissolution studies. The FBRM technique involves the insertion of a probe directly into a process stream, at an angle, to ensure particles can flow easily across the probe window where the measurement takes place. A laser beam is launched down the probe tube through a set of optics and focused to a tight beam spot at the sapphire window. The optics rotate at a fixed speed (typically 2 m/s) resulting in the beam spot rapidly scanning across particles as they flow past the window. As the focused beam scans across the particle system, individual particles or particle structures will backscatter the laser light to the detector. These distinct pulses of backscattered light are detected, counted, and the duration of each pulse is multiplied by the scan speed to calculate the distance across each particle. This distance is defined as the chord length, a fundamental measurement of the particle related to the particle size, and a precise and highly sensitive chord length distribution can be reported in real time, thus tracking how particle size and count change over time. […]
The integration time was set to 5 seconds. […] From that dataset kinetic curves were calculated showing different size fractions and the fraction 40-100 μm was the fraction selected for comparison. […]

[3] = Mercury intrusion porosimetry (pore volume, pore size distribution); type: physicochemical
Procedure: The pore volume and the pore size distribution were determined using mercury intrusion porosimetry (Micromeritics AutoPore III 9410). The determination was performed within the pore diameter interval 115 μm≥ϕ≥0.0030 μm (30 Å). The surface tension and the contact angle of mercury are set to 485 mN/m and 130°, respectively. Blank correction has been used to compensate for compaction of parts of the penetrometer system at high pressures. The test materials used were: ticagrelor granules (“3606”), final tablet blend (“3606 FB”); F-melt type C granules (“F-melt”); Ticagrelor particles from supplier 1 (“AZ”); Ticagrelor particles from supplier 2 (“DSM”); Ticagrelor particles from supplier 3 (“Omnichem”).
One of the penetrometers used for analysis of the granules was used for the reference test. The result gave a cumulative pore volume of 0.55 cm^3/g and a median pore diameter (based on volume) of 73 Å. The reference values are 0.56±0.02 cm^3/g and 75±5 Å, respectively.

[4] = Powder flow indices (Carr's index, Hausner ratio); type: physicochemical; details: ticagrelor powders
Excerpt: Ticagrelor powders are characterised by poor flowability, for example as indicated by a large Hausner ratio (tap density/bulk density ˜1.8-2.0).

[5] = plasma, single 90 mg ticagrelor dose, fasted, range across treatments
[6] = pores <8, post-storage 1 month at 40° C./75% RH
[7] = pores >8, post-storage 1 month at 40° C./75% RH

SMILES | median tmax ([1]; plasma, single 90 mg ticagrelor dose, fasted, across OD (with water, without water, NG tube) and IR tablets) [h] | terminal mean t1/2λz [1, 5] [h] | Plasma metabolite AUC as % of plasma ticagrelor AUC ([1]; range across treatments) | Plasma metabolite Cmax as % of plasma ticagrelor Cmax ([1]; range across treatments) | Particle dissolution by FBRM after storage compared with non-stored granules [2] | Median pore diameter (vol) [3, 6] [μm] | Pore area [3, 6] [m^2/g] | Pore volume [3, 6] [cm^3/g] | Median pore diameter (vol) ([3]; pores <8, pre-storage) [μm] | Pore area ([3]; pores <8, pre-storage) [m^2/g] | Pore volume ([3]; pores <8, pre-storage) [cm^3/g] | Median pore diameter (vol) [3, 7] [μm] | Pore area [3, 7] [m^2/g] | Pore volume [3, 7] [cm^3/g] | Median pore diameter (vol) ([3]; pores >8, pre-storage) [μm] | Pore area ([3]; pores >8, pre-storage) [m^2/g] | Pore volume ([3]; pores >8, pre-storage) [cm^3/g] | Hausner ratio (tap density/bulk density) [4] | Tmax ([1]; both sexes, human, oral, plasma, single 90 mg ticagrelor dose, fasted, across OD (with water, without water, NG tube) and IR tablets, read-out: median tmax) [h]
CCCSc1nc(N[C@@H]2C[C@H]2c2ccc(F)c(F)c2)c2nnn([C@@H]3C[C@H](O)[C@@H](O)[C@H]3O)c2n1 [AR-C124910XX] | 2 to 3 | 9.35 to 9.48 | 38.2-40.5% | 27.1-30.0% |  |  |  |  |  |  |  |  |  |  |  |  |  |  | 
CCCSc1nc(N[C@@H]2C[C@H]2c2ccc(F)c(F)c2)c2nnn([C@@H]3C[C@H](OCCO)[C@@H](O)[C@H]3O)c2n1 [AZ] |  |  |  |  | slower particle dissolution | 1.1 | 14 | 0.23 | 0.9 | 14 | 0.23 | 27 | 0.1 | 0.69 | 24 | 0.1 | 0.62 |  | 
CCCSc1nc(N[C@@H]2C[C@H]2c2ccc(F)c(F)c2)c2nnn([C@@H]3C[C@H](OCCO)[C@@H](O)[C@H]3O)c2n1 [DSM] |  |  |  |  |  | 1.5 | 12 | 0.29 | 1.2 | 13 | 0.28 | 20 | 0.1 | 0.64 | 19 | 0.1 | 0.59 |  | 
CCCSc1nc(N[C@@H]2C[C@H]2c2ccc(F)c(F)c2)c2nnn([C@@H]3C[C@H](OCCO)[C@@H](O)[C@H]3O)c2n1 [Omnichem] |  |  |  |  |  | 0.5 | 9 | 0.18 | 0.5 | 12 | 0.28 | 36 | <0.1 | 0.61 | 35 | <0.1 | 0.53 |  | 
CCCSc1nc(N[C@@H]2C[C@H]2c2ccc(F)c(F)c2)c2nnn([C@@H]3C[C@H](OCCO)[C@@H](O)[C@H]3O)c2n1 [ticagrelor, (1S,2S,3R,5S)-3-[7-{[(1R,2S)-2-(3,4-difluorophenyl)cyclopropyl]amino}-5-(propylthio)-3H[1,2,3]-triazolo[4,5-d]pyrimidin-3-yl]-5-(2-hydroxyethoxy)cyclopentane-1,2-diol] |  | 7.99 to 8.21 |  |  |  |  |  |  |  |  |  |  |  |  |  |  |  | 1.8-2.0 | ~2
